These results are taken from patent publication US9212163B2, “Pesticidal compositions and processes related thereto” (Dow AgroSciences LLC, priority 2012, dated 2015).

Structures are written as SMILES. Where two headings read alike, the source gives them in different places.

Data set [1] has as its system Green Peach Aphid (GPA) (Myzus persicae). The experiment in a line: Bioassay on Green Peach Aphid (GPA), foliar spray on cabbage seedlings. The following applies: 72 h, Table 5: Prophetic Compounds Subsequently Exemplified, read-out: GPA Rating. The format is in vivo. On the procedure:
Certain molecules disclosed in this document were tested against GPA using procedures described in the following example. In the reporting of the results, the “GPA Rating Table” was used (See Table Section).
Cabbage seedlings grown in 3-inch pots, with 2-3 small (3-5 cm) true leaves, were used as test substrate. The seedlings were infested with 20-50 GPA (wingless adult and nymph stages) one day prior to chemical application. Four pots with individual seedlings were used for each treatment. Test compounds (2 mg) were dissolved in 2 mL of acetone/methanol (1:1) solvent, forming stock solutions of 1000 ppm test compound. The stock solutions were diluted 5× with 0.025% Tween 20 in H2O to obtain the solution at 200 ppm test compound. A hand-held aspirator-type sprayer was used for spraying a solution to both sides of […] leaves until runoff. Reference plants (solvent check) were sprayed with the diluent only containing 20% by volume of acetone/methanol (1:1) solvent. Treated plants were held in a holding room for three days at approximately 25° C. and ambient relative humidity (RH) prior to grading. Evaluation was conducted by counting the number of live aphids per plant under a microscope. Percent Control was measured by using Abbott's correction formula (W. S. Abbott, “A Method of Computing the Effectiveness of an Insecticide” J. Econ. Entomol. 18 (1925), pp. 265-267) as follows. Corrected % Control=100*(X−Y)/X • where • X=No. of live aphids on solvent check plants and • Y=No. of live aphids on treated plants
The results are indicated in the tables entitled “Table 3: Assay Results” and “Table 4: Assay Results Part 2” (See Table Section).

For data set [2], the system named is Cabbage Looper (CL) (Trichoplusia ni). The experiment in a line: Bioassay on Cabbage Looper (CL), 128-well diet tray assay. It is filed as in vivo. Particulars: Table 5: Prophetic Compounds Subsequently Exemplified, read-out: CL Rating. On the procedure:
(§1) Certain molecules disclosed in this document were tested against BAW, CEW and CL using procedures described in the following examples. In the reporting of the results, the “BAW & CEW & CL Rating Table” was used (See Table Section).
Bioassays on CL (Trichoplusia ni)
Bioassays on CL were conducted using a 128-well diet tray assay. One to five second instar CL larvae were placed in each well (3 mL) of the diet tray that had been previously filled with 1 mL of artificial diet to which 50 μg/cm^2 of the test compound (dissolved in 50 μL of 90:10 acetone-water mixture) had been applied (to each of eight wells) and then allowed to dry. Trays were covered with a clear self-adhesive cover, and held at 25° C., 14:10 light-dark for five to seven days. Percent mortality was recorded for the larvae in each well; activity in the eight wells was then averaged. The results are indicated in the table entitled “Table 4: Assay Results Part 2” (See Table Section).

Data set [3] relates to Beet Armyworm (BAW) (Spodoptera exigua). The experiment in a line: Bioassay on Beet Armyworm (BAW), 128-well diet tray assay. It is filed as in vivo. The following applies: Spodoptera exigua, read-out: BAW Rating. A digest of the protocol:
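Artificial diet treated with 50 μg/cm^2 compound in 90:10 acetone-water was dried, then one to five second-instar larvae were placed per well, eight wells per compound. Trays were held at 25° C., 14:10 light-dark for five to seven days, and percent mortality averaged across wells.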

Data set [4] has as its system Corn Earworm (CEW) (Helicoverpa zea). Nature of the data set: Bioassay on Corn Earworm (CEW), 128-well diet tray assay. It is filed as in vivo. Particulars: Table 3: Assay Results Part 1, read-out: CEW Rating. On the procedure:
as §1
Bioassays on CEW (Helicoverpa zea)
Bioassays on CEW were conducted using a 128-well diet tray assay. One to five second instar CEW larvae were placed in each well (3 mL) of the diet tray that had been previously filled with 1 mL of artificial diet to which 50 μg/cm^2 of the test compound (dissolved in 50 μL of 90:10 acetone-water mixture) had been applied (to each of eight wells) and then allowed to dry. Trays were covered with a clear self-adhesive cover, and held at 25° C., 14:10 light-dark for five to seven days. Percent mortality was recorded for the larvae in each well; activity in the eight wells was then averaged. The results are indicated in the table entitled “Table 3: Assay Results Part 1” (See Table Section).

Where [5] appears, read: Table 5: Prophetic Compounds Subsequently Exemplified.

For `O=C(NC1(C(=O)NCC(F)(F)F)CC1)c1ccc(/C=C/C(c2ccc(Cl)c([N+](=O)[O-])c2)C(F)(F)F)cc1C(F)(F)F` (centres unmarked) [Compound P470], in data set [1], the pest or weed control at 200 µg/mL was in the range of 0 to 80%. In addition, the pest or weed control at 50 µg/cm2 in data set [2] and in data set [3] (setting [5]) was 50 to 100% each time.

For orientation: melting point means the temperature of the solid-liquid transition. In turn, `NC(=O)c1ccc(/C=C/C(c2cc(Cl)cc(Cl)c2)C(F)(F)F)cc1` (centres unmarked) [AC2] had a melting point of 110 to 112 °C.

With `CCNC(=O)C1(NC(=O)c2ccc(/C=C/C(c3cc(Cl)c(Cl)c(Cl)c3)C(F)(F)F)cc2C)CC1` (centres unmarked) [Compound P1026], the pest or weed control at 200 µg/mL in data set [1] was 0 to 80%. The pest or weed control at 50 µg/cm2 in data set [2] and in data set [3] (setting [5]) was 50 to 100% in each case.

`Cc1cc(/C=C/C(c2cc(Cl)cc(Cl)c2)C(F)(F)F)ccc1C(=O)NCC(=O)NCC(F)(F)F` (centres unmarked) [AC24]: the pest or weed control at 50 µg/cm2 in data set [4] and in data set [3] (Table 3: Assay Results Part 1) was 50 to 100% each time.

For `O=C(NC1(C(=O)NCC(F)(F)F)CC1)c1ccc(/C=C/C(c2ccc(F)c(F)c2F)C(F)(F)F)cc1C(F)(F)F` (centres unmarked) [Compound P65], the pest or weed control at 50 µg/cm2 in data set [2] and in data set [3] (setting [5]) was 50 to 100% each time.

With `O=C(NC1(C(=O)NCC(F)(F)F)CC1)c1ccc(/C=C/C(c2cc(Cl)cc(Cl)c2)C(F)(F)C(F)(F)F)cc1C(F)(F)F` (centres unmarked) [Compound P1045], the pest or weed control at 50 µg/cm2 in data set [2] and in data set [3] (setting [5]) was 50 to 100% throughout.

As for `O=C(NC1(C(=O)NCC(F)(F)F)CC1)c1ccc(/C=C/C(c2ccc(Cl)c(Cl)c2)C(F)(F)F)cc1Br` (centres unmarked) [Compound P1093], the pest or weed control at 50 µg/cm2 in data set [2] and in data set [3] (setting [5]) was 50 to 100% throughout.

As for `O=C(NC1(C(=O)NCC(F)(F)F)CC1)c1ccc(/C=C/C(c2cccc(OC(F)(F)F)c2)C(F)(F)F)cc1Br` (centres unmarked) [Compound P153], the pest or weed control at 50 µg/cm2 in data set [2] and in data set [3] (setting [5]) was 50 to 100% each time.

For the compound `O=C(NC1(C(=O)NCC(F)(F)F)CC1)c1ccc(/C=C/C(c2cc(F)cc(Br)c2)C(F)(F)F)cc1Br` (centres unmarked) [Compound P198], the pest or weed control at 50 µg/cm2 in data set [2] and in data set [3] (setting [5]) was 50 to 100% throughout.

On to `CCNC(=O)C1(NC(=O)c2ccc(/C=C/C(c3cc(Cl)c(Cl)c(Cl)c3)C(F)(F)F)cc2C(F)(F)F)CC1` (centres unmarked) [Compound P1025], for which the pest or weed control at 200 µg/mL in data set [1] is 0 to 80%. For the same compound, the pest or weed control at 50 µg/cm2 in data set [2] and in data set [3] (setting [5]) was 50 to 100% each time.

For the compound `Cc1cc(/C=C/C(c2cc(Cl)c(Cl)c(Cl)c2)C(F)(F)F)ccc1C(=O)NC1(C(=S)NCC(F)(F)F)CC1` (centres unmarked) [Compound P1011], the pest or weed control at 50 µg/cm2 in data set [2] and in data set [3] (setting [5]) was 50 to 100% throughout.

Turning to `Cc1cc(C(/C=C/c2ccc(C(=O)NC3(C(=O)NCC(F)(F)F)CC3)c(Br)c2)C(F)(F)F)ccc1Cl` (centres unmarked) [Compound P243], the pest or weed control at 50 µg/cm2 in data set [2] and in data set [3] (setting [5]) was 50 to 100% throughout.
